Data from patent US20080269200A1, “Indole Derivatives and Use Thereof as Kinase Inhibitors in Particular Ikk2 Inhibitors” (SmithKline Beecham Corporation, priority 2004, published 2008).

Target: T1, Recombinant human IKK2 (residues 1-737) (Homo sapiens, UniProt O14920)
T1 construct: Recombinant human IKK2 (residues 1-737) was expressed in baculovirus as a C-terminal GST-tagged fusion protein; GST (C); made in house
T1 sequence (O14920 1-737): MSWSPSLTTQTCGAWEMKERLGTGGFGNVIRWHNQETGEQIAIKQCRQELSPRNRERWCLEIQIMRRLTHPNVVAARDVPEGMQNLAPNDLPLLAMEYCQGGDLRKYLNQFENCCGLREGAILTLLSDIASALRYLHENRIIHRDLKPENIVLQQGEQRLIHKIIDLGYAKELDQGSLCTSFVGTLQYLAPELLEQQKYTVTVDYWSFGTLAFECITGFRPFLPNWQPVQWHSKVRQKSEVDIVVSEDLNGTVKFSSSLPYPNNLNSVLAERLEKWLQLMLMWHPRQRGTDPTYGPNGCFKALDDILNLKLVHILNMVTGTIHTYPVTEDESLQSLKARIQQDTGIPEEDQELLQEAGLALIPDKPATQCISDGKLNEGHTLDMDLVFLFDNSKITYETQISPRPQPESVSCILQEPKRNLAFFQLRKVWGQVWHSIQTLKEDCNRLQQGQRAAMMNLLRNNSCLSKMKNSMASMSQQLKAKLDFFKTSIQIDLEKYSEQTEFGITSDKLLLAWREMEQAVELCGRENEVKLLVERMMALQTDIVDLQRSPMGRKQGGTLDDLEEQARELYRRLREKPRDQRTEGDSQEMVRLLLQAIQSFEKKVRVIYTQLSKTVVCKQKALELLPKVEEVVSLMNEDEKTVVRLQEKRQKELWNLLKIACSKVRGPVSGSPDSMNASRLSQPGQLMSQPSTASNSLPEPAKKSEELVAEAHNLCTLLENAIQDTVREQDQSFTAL
Assay: IKK2 Assay (TR-FRET)
Assay type: biochemical
Conditions: IKK2 5 nM, GST-IκBα substrate 25 nM, ATP 1 μM, 30 minutes at room temperature
Protocol: Recombinant human IKK2 (residues 1-737) was expressed in baculovirus as a C-terminal GST-tagged fusion protein, and its activity was assessed using a time-resolved fluorescence resonance energy transfer (TR-FRET) assay. Briefly, IKK2 (5 nM final) diluted in assay buffer (50 mM HEPES, 10 mM MgCl2, 1 mM CHAPS pH 7.4 with 1 mM DTT and 0.01% w/v BSA) was added to wells containing various concentrations of compound or DMSO vehicle (3% final). The reaction was initiated by the addition of GST-IκBα substrate (25 nM final)/ATP (1 μM final), in a total volume of 30 μl. The reaction was incubated for 30 minutes at room temperature, then terminated by the addition of 15 μl of 50 mM EDTA. Detection reagent (15 μl) in buffer (100 mM HEPES pH 7.4, 150 mM NaCl and 0.1% w/v BSA) containing antiphosphoserine-IκBα-32/36 monoclonal antibody 12C2 (Cell Signalling Technology, Beverly Mass., USA) labelled with W-1024 europium chelate (Wallac O Y, Turku, Finland), and an APC-labelled anti-GST antibody (Prozyme, San Leandro, Calif., USA) was added and the reaction was further incubated for 60 minutes at room temperature. The degree of phosphorylation of GST-IκBα was measured using a Packard Discovery plate reader (Perkin-Elmer Life Sciences, Pangboume, UK) as a ratio of specific 665 nm energy transfer signal to reference europium 620 nm signal.

Row | IC50 [µM] | Structure (SMILES)
1 | < 15.8 | NC(=O)c1cc(-c2ccc(Cl)cc2)cc2cc[nH]c12 [Example 7, 5-(4-chlorophenyl)-1H-indole-7-carboxamide]
2 | < 15.8 | NC(=O)c1cc(Br)cc2cc[nH]c12 [Intermediate 7, 5-bromo-1H-indole-7-carboxamide]

Row | Structure (SMILES) | IC50 [µM]
3 | NC(=O)c1cc(Br)cc2c(C3CCNCC3)c[nH]c12 [Intermediate 30, 5-bromo-3-(4-piperidinyl)-1H-indole-7-carboxamide] | < 15.8
